The NIST ThermoML archive (doi:10.1021/acs.jced.8b00554)

Conditions: Liquid, Vibrating tube method

CCCCCCCC [octane]
Conditions	mass density [kg/m3]
313.15 K, 100 kPa	686.05
313.15 K, 1030 kPa	687.19
313.15 K, 1950 kPa	688.13
313.15 K, 2950 kPa	689.08
313.15 K, 3960 kPa	690
313.15 K, 4960 kPa	690.87
313.15 K, 5970 kPa	691.78
313.15 K, 6970 kPa	692.65
313.15 K, 7980 kPa	693.54
313.15 K, 8980 kPa	694.38
313.15 K, 9990 kPa	695.26
313.15 K, 11030 kPa	696.11
313.15 K, 11950 kPa	696.94
313.15 K, 12950 kPa	697.75
313.15 K, 13960 kPa	698.56
313.15 K, 14960 kPa	699.37
313.15 K, 15970 kPa	700.18
313.15 K, 16970 kPa	700.99
313.15 K, 17980 kPa	701.77
313.15 K, 18980 kPa	702.53
313.15 K, 19990 kPa	703.31
323.15 K, 100 kPa	677.56
323.15 K, 950 kPa	678.99
323.15 K, 1960 kPa	680.02
323.15 K, 2970 kPa	681.01
323.15 K, 3980 kPa	681.99
323.15 K, 4980 kPa	682.97
323.15 K, 5980 kPa	683.91
323.15 K, 6990 kPa	684.86
323.15 K, 7990 kPa	685.78
323.15 K, 9000 kPa	686.69
323.15 K, 10090 kPa	687.59
323.15 K, 10950 kPa	688.51
323.15 K, 11960 kPa	689.4
323.15 K, 12970 kPa	690.29
323.15 K, 13980 kPa	691.16
323.15 K, 14980 kPa	691.98
323.15 K, 15980 kPa	692.86
323.15 K, 16990 kPa	693.68
323.15 K, 17990 kPa	694.53
323.15 K, 19000 kPa	695.33
323.15 K, 20090 kPa	696.18
333.15 K, 100 kPa	669.13
333.15 K, 1050 kPa	670.67
333.15 K, 1940 kPa	671.75
333.15 K, 2950 kPa	672.81
333.15 K, 3950 kPa	673.87
333.15 K, 4960 kPa	674.91
333.15 K, 5960 kPa	675.95
333.15 K, 6960 kPa	676.93
333.15 K, 7990 kPa	677.93
333.15 K, 8990 kPa	678.93
333.15 K, 10000 kPa	679.89
333.15 K, 11050 kPa	680.86
333.15 K, 11940 kPa	681.81
333.15 K, 12950 kPa	682.71
333.15 K, 13950 kPa	683.67
333.15 K, 14960 kPa	684.58
333.15 K, 15960 kPa	685.48
333.15 K, 16960 kPa	686.34
333.15 K, 17990 kPa	687.26
333.15 K, 18990 kPa	688.1
333.15 K, 20000 kPa	688.97
343.15 K, 100 kPa	661.02
343.15 K, 960 kPa	662.23
343.15 K, 1970 kPa	663.39
343.15 K, 2980 kPa	664.55
343.15 K, 3980 kPa	665.65
343.15 K, 4990 kPa	666.79
343.15 K, 5990 kPa	667.86
343.15 K, 7000 kPa	668.94
343.15 K, 8010 kPa	670.02
343.15 K, 9010 kPa	671.05
343.15 K, 10100 kPa	672.12
343.15 K, 10960 kPa	673.13
343.15 K, 11970 kPa	674.15
343.15 K, 12980 kPa	675.12
343.15 K, 13980 kPa	676.13
343.15 K, 14990 kPa	677.1
343.15 K, 15990 kPa	678.03
343.15 K, 17000 kPa	678.97
343.15 K, 18010 kPa	679.93
343.15 K, 19010 kPa	680.86
343.15 K, 20100 kPa	681.78
353.15 K, 100 kPa	652.22
353.15 K, 1060 kPa	653.65
353.15 K, 1940 kPa	654.91
353.15 K, 2950 kPa	656.12
353.15 K, 3960 kPa	657.35
353.15 K, 4960 kPa	658.54
353.15 K, 5960 kPa	659.71
353.15 K, 6970 kPa	660.9
353.15 K, 7980 kPa	662.03
353.15 K, 8980 kPa	663.17
353.15 K, 9980 kPa	664.24
353.15 K, 11060 kPa	665.33
353.15 K, 11940 kPa	666.44
353.15 K, 12950 kPa	667.49
353.15 K, 13960 kPa	668.52
353.15 K, 14960 kPa	669.56
353.15 K, 15960 kPa	670.6
353.15 K, 16970 kPa	671.6
353.15 K, 17980 kPa	672.57
353.15 K, 18980 kPa	673.56
353.15 K, 19980 kPa	674.52
363.15 K, 100 kPa	643.71
363.15 K, 950 kPa	644.91
363.15 K, 1960 kPa	646.3
363.15 K, 2970 kPa	647.63
363.15 K, 3970 kPa	648.92
363.15 K, 4980 kPa	650.23
363.15 K, 5980 kPa	651.49
363.15 K, 6990 kPa	652.73
363.15 K, 7990 kPa	653.97
363.15 K, 8990 kPa	655.15
363.15 K, 10090 kPa	656.34
363.15 K, 10950 kPa	657.54
363.15 K, 11960 kPa	658.66
363.15 K, 12970 kPa	659.79
363.15 K, 13970 kPa	660.94
363.15 K, 14980 kPa	662.01
363.15 K, 15980 kPa	663.09
363.15 K, 16990 kPa	664.19
363.15 K, 17990 kPa	665.21
363.15 K, 18990 kPa	666.28
363.15 K, 20090 kPa	667.28
